Numbered stars: 1 amine (or outer) side, 2 acyl side, 3 side chain; on linkers, the order of the positions; unused ones are H or OH. Bridge positions count the residues as written; N and C are the ends. Square brackets hold non-standard residues; d marks the D form. Peptide text beside a SMILES is read from it. * marks the point of attachment. Bip(4'-COOH) = N[C@@H](Cc1ccc(-c2ccc(C(=O)O)cc2)cc1)C(=O)O; Bip(4'-NHAc) = CC(=O)Nc1ccc(-c2ccc(C[C@H](N)C(=O)O)cc2)cc1; Phe(3-CH2NH2) = O=C([C@H](Cc1cccc(CN[*:3])c1)N[*:1])[*:2]; Phe(3,4,5-F3) = N[C@@H](Cc1cc(F)c(F)c(F)c1)C(=O)O; Phe(3-CF3) = N[C@@H](Cc1cccc(C(F)(F)F)c1)C(=O)O; Ala(morpholin-4-yl) = N[C@@H](CN1CCOCC1)C(=O)O; Phe(4-CONH2) = NC(=O)c1ccc(C[C@H](N)C(=O)O)cc1; Phe(4-COOH) = N[C@@H](Cc1ccc(C(=O)O)cc1)C(=O)O; X5 = CS(=O)(=O)NC(=O)C[C@H](N[*:1])C(=O)[*:2]; Bip = N[C@@H](Cc1ccc(-c2ccccc2)cc1)C(=O)O; Phe(3-Me) = Cc1cccc(C[C@H](N)C(=O)O)c1; Val(3-OH) = CC(C)(O)[C@H](N)C(=O)O; hArg = N=C(N)NCCCC[C@H](N)C(=O)O; hPhe = N[C@@H](CCc1ccccc1)C(=O)O; Cha = N[C@@H](CC1CCCCC1)C(=O)O; aThr = C[C@H](O)[C@H](N)C(=O)O; Carboxymethyl = O=C(O)C*; NMeA = CN[C@@H](C)C(=O)O; Orn = NCCC[C@H](N)C(=O)O; Dab = NCC[C@H](N)C(=O)O
target: T1, Alexa fluor-647 labeled human PD-L1-Ig binding to Jurkat cell line over-expressing human PD-1 (Homo sapiens, UniProt Q15116); assay: Jurkat-PD-1 Cell Binding High-Content Screening Assay (CBA): Method 3 (Alexa fluor-647 labeled PD-L1-Ig); conditions: Jurkat-PD-1 cells, Alexa fluor-647 labeled PD-L1-Ig 177 nM; head μM; read-out: CBA Method 3 μM
T1 construct: expressed in transfected cells; host or cells: Jurkat
Experimental: Jurkat-PD-1 Cell Binding High-Content Screening Assay (CBA): Method 3
Alexa fluor-647 was covalently linked to the Ig epitope tag of human PD-L1-Ig and fluorescently labeled PD-L1-Ig was used for the binding studies with a Jurkat cell line over-expressing human PD-1. Briefly, 2.5×10^4 Jurkat-hPD-1 cells were seeded into 384 well plates in 20 μl of RPMI supplemented with 10% fetal calf serum. 12.5 nl of compound was added to cells followed by incubation at 37° C. for 2 hours. Then, 10 ul of Alexa fluor-647 labeled PD-L1-Ig (177 nM final), diluted in RPMI supplemented with 10% fetal calf serum was added to the cells and incubated for 1 hour. Cells were then fixed with 4% paraformaldehyde containing 10 μg/ml Hoechst 33342 and then washed 3× in 100 ul PBS and 100 ul of PBS was added in the final step. Data was collected using the Operetta High Content Imager and the data was analyzed using the columbus software.

T1 sequence (Q15116 25-288): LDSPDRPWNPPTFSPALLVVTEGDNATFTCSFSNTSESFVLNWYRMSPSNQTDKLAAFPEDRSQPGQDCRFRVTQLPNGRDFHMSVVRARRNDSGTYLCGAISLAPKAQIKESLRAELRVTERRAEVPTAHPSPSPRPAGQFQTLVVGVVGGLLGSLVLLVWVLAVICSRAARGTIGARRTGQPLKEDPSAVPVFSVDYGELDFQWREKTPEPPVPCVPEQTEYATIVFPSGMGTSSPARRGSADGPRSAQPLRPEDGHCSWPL

Row | Structure (SMILES) | IC50 [µM]
1 | CC(=O)Nc1ccc(-c2ccc(C[C@@H]3NC(=O)[C@H](Cc4cccc(C)c4)NC(=O)[C@H](CC(=O)O)NC(=O)[C@H](Cc4ccc(-c5ccc(C(=O)O)cc5)cc4)NC(=O)[C@H](CN4CCOCC4)NC(=O)CSC[C@@H](C(=O)N[C@@H](CCN)C(N)=O)NC(=O)[C@H](Cc4cnc[nH]4)NC(=O)[C@H](C(C)(C)O)NC(=O)[C@H](CC4CCCCC4)NC(=O)[C@H](CCN)NC(=O)[C@@H](CC(C)C)NC(=O)[C@H](C)N(C)C(=O)[C@H](Cc4ccc(OCC(=O)O)cc4)NC(=O)[C@H](Cc4ccc(-c5ccccc5)cc4)NC3=O)cc2)cc1 [Example 5134] ({CH2CO}-[Ala(morpholin-4-yl)][Bip(4'-COOH)]D[Phe(3-Me)][Bip(4'-NHAc)][Bip]Y(Carboxymethyl)[NMeA][dL][Dab][Cha][Val(3-OH)]HC[Dab]-NH2; thioether N-14) | 0.03
2 | CC(C)C[C@@H]1NC(=O)[C@H](Cc2c[nH]c3ccccc23)NC(=O)[C@H](CC(=O)O)NC(=O)[C@H](Cc2ccc(C(=O)O)cc2)NC(=O)[C@H](Cc2ccc(OCC(=O)O)cc2)NC(=O)CSC[C@@H](C(=O)N[C@@H](CCN)C(N)=O)NC(=O)[C@H](C(C)C)NC(=O)[C@H]([C@@H](C)O)NC(=O)[C@H](CC2CCCCC2)NC(=O)[C@H](CCN)NC(=O)[C@@H](CC(C)C)NC(=O)[C@H](C)N(C)C(=O)[C@H](C(C)C)NC(=O)[C@H](Cc2ccc(-c3ccccc3)cc2)NC1=O [Example 5141] ({CH2CO}-Y(Carboxymethyl)[Phe(4-COOH)]DWL[Bip]V[NMeA][dL][Dab][Cha]TVC[Dab]-NH2; thioether N-14) | 0.02
3 | CC(=O)Nc1ccc(-c2ccc(C[C@@H]3NC(=O)[C@H](Cc4cccc(C(F)(F)F)c4)NC(=O)[C@H](CC(=O)NS(C)(=O)=O)NC(=O)[C@H](Cc4ccc(C(N)=O)cc4)NC(=O)[C@H]([C@H](C)O)NC(=O)CSC[C@@H](C(=O)N[C@@H](CCN)C(N)=O)NC(=O)[C@H](CC(N)=O)NC(=O)[C@H](C(C)C)NC(=O)[C@H](CC4CCCCC4)NC(=O)[C@H](CCN)NC(=O)[C@@H](CC(C)C)NC(=O)[C@H](C)N(C)C(=O)[C@H](Cc4ccc(C(N)=O)cc4)NC(=O)[C@H](Cc4ccc(-c5ccccc5)cc4)NC3=O)cc2)cc1 [Example 5115] ({CH2CO}-[aThr][Phe(4-CONH2)][X5][Phe(3-CF3)][Bip(4'-NHAc)][Bip][Phe(4-CONH2)][NMeA][dL][Dab][Cha]VNC[Dab]-NH2; thioether N-14) | 0.28
4 | Cc1cccc(C[C@@H]2NC(=O)[C@H](CC(=O)O)NC(=O)[C@H](Cc3ccc(OCC(=O)O)cc3)NC(=O)[C@H](CC3CCCCC3)NC(=O)CSC[C@@H](C(=O)N[C@@H](CCN)C(N)=O)NC(=O)[C@H](CCCN)NC(=O)[C@H](C(C)C)NC(=O)[C@H](Cc3cccc(CN)c3)NC(=O)[C@H](CCN)NC(=O)[C@@H](CC(C)C)NC(=O)[C@H](C)N(C)C(=O)[C@H](CCC(N)=O)NC(=O)[C@H](Cc3ccc(-c4ccccc4)cc3)NC(=O)[C@H](Cc3ccc(C(=O)O)cc3)NC2=O)c1 [Example 5188] ({CH2CO}-[Cha]Y(Carboxymethyl)D[Phe(3-Me)][Phe(4-COOH)][Bip]Q[NMeA][dL][Dab][Phe(3-CH2NH2)]V[Orn]C[Dab]-NH2; thioether N-14) | 0.05

Next, values leading:

Row | IC50 [µM] | Structure (SMILES)
5 | 0.01 | Cc1cccc(C[C@@H]2NC(=O)[C@H](CC(=O)O)NC(=O)[C@H](Cc3ccc(OCC(=O)O)cc3)NC(=O)[C@H](CCCCNC(=N)N)NC(=O)CSC[C@@H](C(=O)N[C@@H](CCN)C(N)=O)NC(=O)[C@H](CCC(=O)O)NC(=O)[C@H](C(C)C)NC(=O)[C@H](CC3CCCCC3)NC(=O)[C@H](CCN)NC(=O)[C@@H](CC(C)C)NC(=O)[C@H](C)N(C)C(=O)[C@H](CCC(N)=O)NC(=O)[C@H](Cc3ccc(-c4ccccc4)cc3)NC(=O)[C@H](CCc3ccccc3)NC2=O)c1 [Example 5283] ({CH2CO}-[hArg]Y(Carboxymethyl)D[Phe(3-Me)][hPhe][Bip]Q[NMeA][dL][Dab][Cha]VEC[Dab]-NH2; thioether N-14)
6 | 0.27 | Cc1cccc(C[C@@H]2NC(=O)[C@H](CC(=O)O)NC(=O)[C@H](Cc3ccc(OCC(=O)O)cc3)NC(=O)[C@H](Cc3cc(F)c(F)c(F)c3)NC(=O)CSC[C@@H](C(=O)N[C@@H](CCN)C(N)=O)NC(=O)[C@H](CCCN)NC(=O)[C@H](C(C)C)NC(=O)[C@H](CC3CCCCC3)NC(=O)[C@H](CCN)NC(=O)[C@@H](CC(C)C)NC(=O)[C@H](C)N(C)C(=O)[C@H](CCC(N)=O)NC(=O)[C@H](Cc3ccc(-c4ccccc4)cc3)NC(=O)[C@H](Cc3ccc(C(=O)O)cc3)NC2=O)c1 [Example 5287] ({CH2CO}-[Phe(3,4,5-F3)]Y(Carboxymethyl)D[Phe(3-Me)][Phe(4-COOH)][Bip]Q[NMeA][dL][Dab][Cha]V[Orn]C[Dab]-NH2; thioether N-14)

same assay, conditions: Jurkat-PD-1 cells, Alexa fluor-647 labeled PD-L1-Ig 177 nM; nM; read-out: CBA Method 3

Row | Structure (SMILES) | IC50 [µM]
7 | CC(=O)Nc1ccc(-c2ccc(C[C@@H]3NC(=O)[C@H](Cc4cccc(C(F)(F)F)c4)NC(=O)[C@H](CC(=O)O)NC(=O)[C@H](Cc4ccc(C(=O)O)cc4)NC(=O)[C@H](CC(C)C)NC(=O)CSC[C@@H](C(=O)N[C@@H](CCN)C(N)=O)NC(=O)[C@H](CC(N)=O)NC(=O)[C@H](C(C)C)NC(=O)[C@H](CC4CCCCC4)NC(=O)[C@H](CCN)NC(=O)[C@@H](CC(C)C)NC(=O)[C@H](C)N(C)C(=O)[C@H](CCCN)NC(=O)[C@H](Cc4ccc(-c5ccccc5)cc4)NC3=O)cc2)cc1 [Example 5095] ({CH2CO}-L[Phe(4-COOH)]D[Phe(3-CF3)][Bip(4'-NHAc)][Bip][Orn][NMeA][dL][Dab][Cha]VNC[Dab]-NH2; thioether N-14) | 0.0061
8 | CC(=O)Nc1ccc(-c2ccc(C[C@@H]3NC(=O)[C@H](Cc4cccc(C(F)(F)F)c4)NC(=O)[C@H](CC(=O)O)NC(=O)[C@H](Cc4ccc(C(=O)O)cc4)NC(=O)[C@H](CN4CCOCC4)NC(=O)CSC[C@@H](C(=O)N[C@@H](CCN)C(N)=O)NC(=O)[C@H](CCC(=O)O)NC(=O)[C@H](C(C)C)NC(=O)[C@H](CC4CCCCC4)NC(=O)[C@H](CCN)NC(=O)[C@@H](CC(C)C)NC(=O)[C@H](C)N(C)C(=O)[C@H](Cc4ccc(C(=O)O)cc4)NC(=O)[C@H](Cc4ccc(-c5ccccc5)cc4)NC3=O)cc2)cc1 [Example 5149] ({CH2CO}-[Ala(morpholin-4-yl)][Phe(4-COOH)]D[Phe(3-CF3)][Bip(4'-NHAc)][Bip][Phe(4-COOH)][NMeA][dL][Dab][Cha]VEC[Dab]-NH2; thioether N-14) | 0.0059
9 | CC(C)C[C@@H]1NC(=O)[C@H](Cc2c[nH]c3ccccc23)NC(=O)[C@H](CC(=O)O)NC(=O)[C@H](Cc2ccc(-c3ccc(C(=O)O)cc3)cc2)NC(=O)[C@H](CN2CCOCC2)NC(=O)CSC[C@@H](C(=O)N[C@@H](CCN)C(N)=O)NC(=O)[C@H](CCC(=O)O)NC(=O)[C@H](C(C)C)NC(=O)[C@H](CC(C)C)NC(=O)[C@H](CC(N)=O)NC(=O)[C@@H](CC(C)C)NC(=O)[C@H](C)N(C)C(=O)[C@H](C(C)C)NC(=O)[C@H](Cc2ccc(-c3ccccc3)cc2)NC1=O [Example 5124] ({CH2CO}-[Ala(morpholin-4-yl)][Bip(4'-COOH)]DWL[Bip]V[NMeA][dL]NLVEC[Dab]-NH2; thioether N-14) | 0.0026

More lines, now with the values ahead:

Row | IC50 [µM] | Structure (SMILES)
10 | 0.006 | Cc1cccc(C[C@@H]2NC(=O)[C@H](CC(=O)O)NC(=O)[C@H](Cc3ccc(OCC(=O)O)cc3)NC(=O)[C@H](Cc3cnc[nH]3)NC(=O)CSC[C@@H](C(=O)N[C@@H](CCN)C(N)=O)NC(=O)[C@H](CCCN)NC(=O)[C@H](C(C)C)NC(=O)[C@H](CC3CCCCC3)NC(=O)[C@H](CCN)NC(=O)[C@@H](CC(C)C)NC(=O)[C@H](C)N(C)C(=O)[C@H](CCC(N)=O)NC(=O)[C@H](Cc3ccc(-c4ccccc4)cc3)NC(=O)[C@H](Cc3ccc(C(=O)O)cc3)NC2=O)c1 [Example 5274] ({CH2CO}-HY(Carboxymethyl)D[Phe(3-Me)][Phe(4-COOH)][Bip]Q[NMeA][dL][Dab][Cha]V[Orn]C[Dab]-NH2; thioether N-14)
11 | 0.0006 | CC(C)C[C@H]1NC(=O)[C@H](C)N(C)C(=O)[C@H](CCC(N)=O)NC(=O)[C@H](Cc2ccc(-c3ccccc3)cc2)NC(=O)[C@H](Cc2ccc(OCC(=O)O)cc2)NC(=O)[C@H](Cc2cccc(C(F)(F)F)c2)NC(=O)[C@H](CC(=O)O)NC(=O)[C@H](CCC(N)=O)NC(=O)[C@H](CC2CCCCC2)NC(=O)CSC[C@@H](C(=O)N[C@@H](CCN)C(N)=O)NC(=O)[C@H](CCCN)NC(=O)[C@H](C(C)C)NC(=O)[C@H](CC2CCCCC2)NC(=O)[C@H](CCN)NC1=O [Example 5248] ({CH2CO}-[Cha]QD[Phe(3-CF3)]Y(Carboxymethyl)[Bip]Q[NMeA][dL][Dab][Cha]V[Orn]C[Dab]-NH2; thioether N-14)
12 | 0.0053 | CC[C@H](C)[C@@H]1NC(=O)CSC[C@@H](C(=O)N[C@@H](CCN)C(N)=O)NC(=O)[C@H](CCCN)NC(=O)[C@H](C(C)C)NC(=O)[C@H](CC2CCCCC2)NC(=O)[C@H](CCN)NC(=O)[C@@H](CC(C)C)NC(=O)[C@H](C)N(C)C(=O)[C@H](CCC(N)=O)NC(=O)[C@H](Cc2ccc(-c3ccccc3)cc2)NC(=O)[C@H](Cc2ccc(C(=O)O)cc2)NC(=O)[C@H](Cc2cccc(C)c2)NC(=O)[C@H](CC(=O)O)NC(=O)[C@H](Cc2ccc(OCC(=O)O)cc2)NC1=O [Example 5268] ({CH2CO}-IY(Carboxymethyl)D[Phe(3-Me)][Phe(4-COOH)][Bip]Q[NMeA][dL][Dab][Cha]V[Orn]C[Dab]-NH2; thioether N-14)

Source: patent US20240409585A1, “MACROCYCLIC IMMUNOMODULATORS” (priority 2021, published 2024)
